A short description of data set [1]: Aqueous solubility by concentration measurement (absorbance at 280 nm) of saturated peptide solutions. It is filed as physicochemical. The conditions noted are these: saturated peptide solutions, absorbance at 280 nm; read-out: approximate aqueous solubility. As to the method: The relative lipophilicities of Peptides I, III, VI, IX, and Parent are inversely consistent with solubilities as determined via concentration measurement (absorbance at 280 nm) of saturated peptide solutions, with Peptides I, III, and Parent having approximate aqueous solubilities of >1 mM, Peptide VI>500 μM, and Peptide IX<500 μM.

A short description of data set [2]: RP-HPLC relative lipophilicity (retention factor k, log k). It is filed as physicochemical. How it is done: The effect of the hydrophobic content of compstatin family peptides on relative lipophilicity was evaluated using RP-HPLC, a widely applied indirect technique for the determination of the lipophilicity of drugs and drug candidates. The determination of log P by RP-HPLC is based on the measurement of the retention factor k between the mobile and stationary phase (Eq. 7) of the investigated compound:
[formula] where tR is the retention time of the analyte, and to is the elution time of an unretained analyte. The logarithm of the retention factor is linearly correlated with the logarithm of the partition coefficient log P=a log k+b (8). where a and b are the slope and intercept of the linear equation.
The determination of log P values requires calibration using structurally related compounds, and is beyond the scope of this study. Instead the log k values were used to indicate the relative lipophilicities of this compstatin peptide family.
HPLC experiments were carried out using an Agilent 1100 HPLC with UV detection at 280 nm at 25° C. Separations were performed on a Waters (Milford, Mass.) 4.6×150 mm XTerra MS C18 column with 5 μm pore size using a mobile phase of A: 10 mM phosphate buffer pH=7.4 containing 1% TFA, and B: acetonitrile. The purity of the peptides was verified by an isocratic separation at 28% B and a flow rate of 1 mL/min. Solutions containing 0.6-0.8 mg/mL of Peptides I, III, VI, IX and the parent peptide were prepared in methanol and diluted 5-times with the eluent. All five peptides eluted as single peaks indicating a high degree of purity (FIG. 10).
For the determination of the relative lipophilicities a solution containing each of the peptides was prepared from the stock solutions and injected in triplicate. […] A 0.5 mg/mL solution of aspartic acid was used as the unretained analyte for the determination of the column dead time, 1.439±0.003 min.
RP-HPLC was used to measure the hydrophobicity/lipophilicity content of the compstatin family peptides. The retention of a compound in RP-HPLC depends on its hydrophobicity/lipophilicity content, and is correlated to the octanol-water partition ratio. Lipophilicity describes the partitioning of a compound between an aqueous and a lipidic/hydrophobic environment, and is an essential physicochemical parameter to determine pharmacokinetic behavior according to ADME (absorption, distribution, metabolism, excretion) characterization. Because the compstatin family peptides consist of a hydrophobic and a polar surface, their ability to bind to the hydrophobic cavity of C3, while maintaining a solvent-exposed face has been evaluated here as lipohilicity content, measured by RP-HPLC. In addition, lipohilicity is inversely proportional to aqueous solubility, and therefore can be used to estimate solubility of the peptides in their free (unbound) state.

The target of another data set is rC3 (Rattus norvegicus, UniProt P01026). Nature of the data set: Experimental activity against rC3 (method not described).

For orientation: solubility means the concentration that dissolves in the medium under given conditions.

rC3, sequence (P01026 25-1663): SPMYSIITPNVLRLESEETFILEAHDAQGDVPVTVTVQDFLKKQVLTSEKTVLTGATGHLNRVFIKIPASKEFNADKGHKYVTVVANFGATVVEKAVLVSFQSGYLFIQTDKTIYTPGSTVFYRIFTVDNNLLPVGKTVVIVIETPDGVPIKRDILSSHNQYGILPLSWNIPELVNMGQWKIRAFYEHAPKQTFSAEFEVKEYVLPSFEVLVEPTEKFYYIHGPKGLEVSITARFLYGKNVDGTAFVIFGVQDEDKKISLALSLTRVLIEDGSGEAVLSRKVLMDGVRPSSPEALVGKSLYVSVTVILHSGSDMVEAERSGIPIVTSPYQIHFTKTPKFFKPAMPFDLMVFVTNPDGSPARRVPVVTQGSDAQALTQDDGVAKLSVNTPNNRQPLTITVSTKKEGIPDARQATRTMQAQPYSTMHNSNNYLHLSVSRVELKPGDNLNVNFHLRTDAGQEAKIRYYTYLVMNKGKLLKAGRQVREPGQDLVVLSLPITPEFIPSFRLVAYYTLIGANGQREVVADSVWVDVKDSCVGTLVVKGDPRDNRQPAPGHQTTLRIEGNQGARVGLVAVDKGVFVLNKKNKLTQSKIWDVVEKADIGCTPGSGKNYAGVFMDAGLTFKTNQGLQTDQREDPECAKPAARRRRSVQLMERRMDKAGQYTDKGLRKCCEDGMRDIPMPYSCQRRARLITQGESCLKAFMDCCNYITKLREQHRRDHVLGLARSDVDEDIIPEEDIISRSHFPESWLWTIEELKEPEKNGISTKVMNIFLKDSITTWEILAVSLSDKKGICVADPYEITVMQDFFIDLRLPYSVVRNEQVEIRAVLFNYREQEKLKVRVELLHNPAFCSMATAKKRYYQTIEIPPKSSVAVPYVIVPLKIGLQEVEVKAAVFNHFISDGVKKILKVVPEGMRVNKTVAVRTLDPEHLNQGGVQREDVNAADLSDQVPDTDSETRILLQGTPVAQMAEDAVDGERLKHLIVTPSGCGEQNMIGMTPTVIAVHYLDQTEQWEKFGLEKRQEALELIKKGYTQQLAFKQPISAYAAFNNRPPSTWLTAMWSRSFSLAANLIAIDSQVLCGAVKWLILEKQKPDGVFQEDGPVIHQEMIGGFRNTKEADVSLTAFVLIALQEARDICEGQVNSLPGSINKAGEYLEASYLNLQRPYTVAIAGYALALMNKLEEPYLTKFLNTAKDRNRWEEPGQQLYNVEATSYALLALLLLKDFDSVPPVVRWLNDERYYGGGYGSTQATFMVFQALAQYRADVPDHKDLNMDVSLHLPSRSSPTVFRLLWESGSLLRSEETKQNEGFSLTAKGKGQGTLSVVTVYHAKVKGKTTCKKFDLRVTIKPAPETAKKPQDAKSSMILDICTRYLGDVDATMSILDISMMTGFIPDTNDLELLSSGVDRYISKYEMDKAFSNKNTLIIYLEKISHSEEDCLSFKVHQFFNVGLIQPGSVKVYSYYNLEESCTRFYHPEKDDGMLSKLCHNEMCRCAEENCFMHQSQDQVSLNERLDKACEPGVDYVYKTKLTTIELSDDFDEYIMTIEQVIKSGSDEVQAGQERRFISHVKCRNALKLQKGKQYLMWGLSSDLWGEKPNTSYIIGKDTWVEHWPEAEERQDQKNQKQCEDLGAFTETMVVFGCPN

Take `CC[C@H](C)[C@H](NC(C)=O)C(=O)N[C@H]1CSSC[C@@H](C(=O)N[C@H](C(N)=O)[C@@H](C)O)NC(=O)[C@H](CCCNC(=N)N)NC(=O)[C@H](Cc2c[nH]cn2)NC(=O)[C@H](C)NC(=O)CNC(=O)[C@H](Cc2c[nH]c3ccccc23)NC(=O)[C@H](CC(=O)O)NC(=O)[C@H](CCC(N)=O)NC(=O)[C@H](Cc2c[nH]c3ccccc23)NC(=O)[C@H](C(C)C)NC1=O` [Peptide IX, Ac- ICV WQDWGA HRCT-NH2, reference compound]: in data set [1], the solubility was less than 500 µM. In data set [2], the “Retention factor (k)” value is listed as 11.429 and the logk is listed as 1.058. On rC3, the “activity against rC3 (in words)” value was “inactive”.

The values above are taken from patent publication US9512180B2, “Compstatin analogs” (THE REGENTS OF THE UNIVERSITY OF CALIFORNIA, priority 2012, dated 2016).
